Reference: the supplement of paper PMC10307832

Columns and labels:
Experiment in all cases: relative viability (nuclei count vs DMSO), 5 days (fraction); higher = more cells survive
Omipalisib = compound: COc1ncc(-c2ccc3nccc(-c4ccnnc4)c3c2)cc1NS(=O)(=O)c1ccc(F)cc1F [Omipalisib]
Procedure, shortened: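 Vehicle-anchored 1536-well plates of lung cancer cell lines, held overnight at 37 °C, were pinned with five library-drug doses (not always all listed) spaced by √10. No medium change followed over the next 5 days, after which the cells were fixed, permeabilised and Hoechst-stained together and imaged at 4×. Nuclei were counted with MetaXpress, and viability is treated-well nuclei over vehicle-well nuclei, taken as a median across plates. Plates passed with control CV below 25% and at least one doubling.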

Omipalisib + Trametinib = compound: COc1ncc(-c2ccc3nccc(-c4ccnnc4)c3c2)cc1NS(=O)(=O)c1ccc(F)cc1F [Omipalisib] + CC(=O)Nc1cccc(-n2c(=O)n(C3CC3)c(=O)c3c(Nc4ccc(I)cc4F)n(C)c(=O)c(C)c32)c1 [Trametinib] (partner 0.02 µM)
Procedure, shortened: (§1)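 Each reported value is a median over duplicate plates. It expresses relative viability: treated-well nuclei count divided by vehicle-well nuclei count. Lung cancer cell lines in 1536-well plates were dosed by pin tool a day after seeding, alone with one drug or with a fixed anchor-drug dose plus five library-drug doses (not always all listed) in √10 steps, and nuclei were counted after 5 days.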

Omipalisib + Palbociclib = compound: COc1ncc(-c2ccc3nccc(-c4ccnnc4)c3c2)cc1NS(=O)(=O)c1ccc(F)cc1F [Omipalisib] + CC(=O)c1c(C)c2cnc(Nc3ccc(N4CCNCC4)cn3)nc2n(C2CCCC2)c1=O [Palbociclib] (partner 0.5 µM)
Procedure, shortened: as §1

Omipalisib + Luminespib = compound: COc1ncc(-c2ccc3nccc(-c4ccnnc4)c3c2)cc1NS(=O)(=O)c1ccc(F)cc1F [Omipalisib] + CCNC(=O)c1noc(-c2cc(C(C)C)c(O)cc2O)c1-c1ccc(CN2CCOCC2)cc1 [Luminespib] (partner 0.01 µM)
Procedure, shortened: as §1

Omipalisib + OSI-027 = compound: COc1ncc(-c2ccc3nccc(-c4ccnnc4)c3c2)cc1NS(=O)(=O)c1ccc(F)cc1F [Omipalisib] + COc1cccc2cc(-c3nc([C@H]4CC[C@H](C(=O)O)CC4)n4ncnc(N)c34)[nH]c12 [OSI-027] (partner 0.5 µM)
Procedure, shortened: as §1

Omipalisib + Tozasertib = compound: COc1ncc(-c2ccc3nccc(-c4ccnnc4)c3c2)cc1NS(=O)(=O)c1ccc(F)cc1F [Omipalisib] + Cc1cc(Nc2cc(N3CCN(C)CC3)nc(Sc3ccc(NC(=O)C4CC4)cc3)n2)n[nH]1 [Tozasertib] (partner 0.1 µM)
Procedure, shortened: as §1

Omipalisib + Dasatinib = compound: COc1ncc(-c2ccc3nccc(-c4ccnnc4)c3c2)cc1NS(=O)(=O)c1ccc(F)cc1F [Omipalisib] + Cc1nc(Nc2ncc(C(=O)Nc3c(C)cccc3Cl)s2)cc(N2CCN(CCO)CC2)n1 [Dasatinib] (partner 0.075 µM)
Procedure, shortened: as §1

Omipalisib + Phenformin = compound: COc1ncc(-c2ccc3nccc(-c4ccnnc4)c3c2)cc1NS(=O)(=O)c1ccc(F)cc1F [Omipalisib] + N=C(N)NC(=N)NCCc1ccccc1 [Phenformin] (partner 250 µM)
Procedure, shortened: as §1

Omipalisib + AZD7762 = compound: COc1ncc(-c2ccc3nccc(-c4ccnnc4)c3c2)cc1NS(=O)(=O)c1ccc(F)cc1F [Omipalisib] + NC(=O)Nc1cc(-c2cccc(F)c2)sc1C(=O)N[C@H]1CCCNC1 [AZD7762] (partner 0.2 µM)
Procedure, shortened: as §1

Omipalisib + Pemetrexed = compound: COc1ncc(-c2ccc3nccc(-c4ccnnc4)c3c2)cc1NS(=O)(=O)c1ccc(F)cc1F [Omipalisib] + Nc1nc2[nH]cc(CCc3ccc(C(=O)N[C@@H](CCC(=O)O)C(=O)O)cc3)c2c(=O)[nH]1 [Pemetrexed] (partner 0.2 µM)
Procedure, shortened: as §1

Omipalisib + Decitabine = compound: COc1ncc(-c2ccc3nccc(-c4ccnnc4)c3c2)cc1NS(=O)(=O)c1ccc(F)cc1F [Omipalisib] + Nc1ncn([C@H]2C[C@H](O)[C@@H](CO)O2)c(=O)n1 [Decitabine] (partner 2 µM)
Procedure, shortened: as §1

Omipalisib + Vorinostat = compound: COc1ncc(-c2ccc3nccc(-c4ccnnc4)c3c2)cc1NS(=O)(=O)c1ccc(F)cc1F [Omipalisib] + O=C(CCCCCCC(=O)Nc1ccccc1)NO [Vorinostat] (partner 1 µM)
Procedure, shortened: as §1

Omipalisib + Olaparib = compound: COc1ncc(-c2ccc3nccc(-c4ccnnc4)c3c2)cc1NS(=O)(=O)c1ccc(F)cc1F [Omipalisib] + O=C(c1cc(Cc2n[nH]c(=O)c3ccccc23)ccc1F)N1CCN(C(=O)C2CC2)CC1 [Olaparib] (partner 8 µM)
Procedure, shortened: as §1

Omipalisib + Bortezomib = compound: COc1ncc(-c2ccc3nccc(-c4ccnnc4)c3c2)cc1NS(=O)(=O)c1ccc(F)cc1F [Omipalisib] + CC(C)C[C@H](NC(=O)[C@H](Cc1ccccc1)NC(=O)c1cnccn1)B(O)O [Bortezomib] (partner 0.002 µM)
Procedure, shortened: as §1

Omipalisib + Navitoclax = compound: COc1ncc(-c2ccc3nccc(-c4ccnnc4)c3c2)cc1NS(=O)(=O)c1ccc(F)cc1F [Omipalisib] + CC1(C)CCC(c2ccc(Cl)cc2)=C(CN2CCN(c3ccc(C(=O)NS(=O)(=O)c4ccc(N[C@H](CCN5CCOCC5)CSc5ccccc5)c(S(=O)(=O)C(F)(F)F)c4)cc3)CC2)C1 [Navitoclax] (partner 0.5 µM)
Procedure, shortened: as §1

Omipalisib + Foretinib = compound: COc1ncc(-c2ccc3nccc(-c4ccnnc4)c3c2)cc1NS(=O)(=O)c1ccc(F)cc1F [Omipalisib] + COc1cc2c(Oc3ccc(NC(=O)C4(C(=O)Nc5ccc(F)cc5)CC4)cc3F)ccnc2cc1OCCCN1CCOCC1 [Foretinib] (partner 0.25 µM)
Procedure, shortened: as §1

Omipalisib + Lapatinib = compound: COc1ncc(-c2ccc3nccc(-c4ccnnc4)c3c2)cc1NS(=O)(=O)c1ccc(F)cc1F [Omipalisib] + CS(=O)(=O)CCNCc1ccc(-c2ccc3ncnc(Nc4ccc(OCc5cccc(F)c5)c(Cl)c4)c3c2)o1 [Lapatinib] (partner 2 µM)
Procedure, shortened: as §1

Omipalisib + Pictilisib = compound: COc1ncc(-c2ccc3nccc(-c4ccnnc4)c3c2)cc1NS(=O)(=O)c1ccc(F)cc1F [Omipalisib] + CS(=O)(=O)N1CCN(Cc2cc3nc(-c4cccc5[nH]ncc45)nc(N4CCOCC4)c3s2)CC1 [Pictilisib] (partner 1 µM)
Procedure, shortened: as §1

Omipalisib + Crizotinib = compound: COc1ncc(-c2ccc3nccc(-c4ccnnc4)c3c2)cc1NS(=O)(=O)c1ccc(F)cc1F [Omipalisib] + C[C@@H](Oc1cc(-c2cnn(C3CCNCC3)c2)cnc1N)c1c(Cl)ccc(F)c1Cl [Crizotinib] (partner 1 µM)
Procedure, shortened: as §1

Omipalisib + Linsitinib = compound: COc1ncc(-c2ccc3nccc(-c4ccnnc4)c3c2)cc1NS(=O)(=O)c1ccc(F)cc1F [Omipalisib] + C[C@]1(O)C[C@@H](c2nc(-c3ccc4ccc(-c5ccccc5)nc4c3)c3c(N)nccn32)C1 [Linsitinib] (partner 1 µM)
Procedure, shortened: as §1

Omipalisib + Alpelisib = compound: COc1ncc(-c2ccc3nccc(-c4ccnnc4)c3c2)cc1NS(=O)(=O)c1ccc(F)cc1F [Omipalisib] + Cc1nc(NC(=O)N2CCC[C@H]2C(N)=O)sc1-c1ccnc(C(C)(C)C(F)(F)F)c1 [Alpelisib] (partner 2 µM)
Procedure, shortened: as §1

## NCI-H522
Omipalisib; 0.0003 µM
  relative viability: 0.838
Omipalisib; 0.003 µM
  relative viability: 0.912
Omipalisib; 0.03 µM
  relative viability: 0.694
Omipalisib + Trametinib; first compound 0.0003 µM
  relative viability: 0.746
Omipalisib + Trametinib; first compound 0.003 µM
  relative viability: 0.604
Omipalisib + Trametinib; first compound 0.03 µM
  relative viability: 0.443
Omipalisib + Palbociclib; first compound 0.0003 µM
  relative viability: 1.01
Omipalisib + Palbociclib; first compound 0.003 µM
  relative viability: 0.823
Omipalisib + Palbociclib; first compound 0.03 µM
  relative viability: 0.532
Omipalisib + Luminespib; first compound 0.0003 µM
  relative viability: 1.04
Omipalisib + Luminespib; first compound 0.003 µM
  relative viability: 1.89
Omipalisib + Luminespib; first compound 0.03 µM
  relative viability: 0.652
Omipalisib + OSI-027; first compound 0.0003 µM
  relative viability: 0.69
Omipalisib + OSI-027; first compound 0.003 µM
  relative viability: 0.641
Omipalisib + OSI-027; first compound 0.03 µM
  relative viability: 0.531
Omipalisib + Tozasertib; first compound 0.0003 µM
  relative viability: 0.515
Omipalisib + Tozasertib; first compound 0.003 µM
  relative viability: 0.451
Omipalisib + Tozasertib; first compound 0.03 µM
  relative viability: 0.438
Omipalisib + Dasatinib; first compound 0.0003 µM
  relative viability: 0.857
Omipalisib + Dasatinib; first compound 0.003 µM
  relative viability: 0.745
Omipalisib + Dasatinib; first compound 0.03 µM
  relative viability: 0.626
Omipalisib + Phenformin; first compound 0.0003 µM
  relative viability: 0.604
Omipalisib + Phenformin; first compound 0.003 µM
  relative viability: 0.559
Omipalisib + Phenformin; first compound 0.03 µM
  relative viability: 0.583
Omipalisib + AZD7762; first compound 0.0003 µM
  relative viability: 0.652
Omipalisib + AZD7762; first compound 0.003 µM
  relative viability: 0.58
Omipalisib + AZD7762; first compound 0.03 µM
  relative viability: 0.839
Omipalisib + Pemetrexed; first compound 0.0003 µM
  relative viability: 0.963
Omipalisib + Pemetrexed; first compound 0.003 µM
  relative viability: 0.932
Omipalisib + Pemetrexed; first compound 0.03 µM
  relative viability: 0.636
Omipalisib + Decitabine; first compound 0.0003 µM
  relative viability: 0.665
Omipalisib + Decitabine; first compound 0.003 µM
  relative viability: 0.596
Omipalisib + Decitabine; first compound 0.03 µM
  relative viability: 0.595
Omipalisib + Vorinostat; first compound 0.0003 µM
  relative viability: 0.837
Omipalisib + Vorinostat; first compound 0.003 µM
  relative viability: 0.766
Omipalisib + Vorinostat; first compound 0.03 µM
  relative viability: 0.724
Omipalisib + Olaparib; first compound 0.0003 µM
  relative viability: 0.532
Omipalisib + Olaparib; first compound 0.003 µM
  relative viability: 0.614
Omipalisib + Olaparib; first compound 0.03 µM
  relative viability: 0.505

## EBC-1
Omipalisib; 0.0003 µM
  relative viability: 0.957
Omipalisib; 0.003 µM
  relative viability: 0.821
Omipalisib; 0.03 µM
  relative viability: 0.325
Omipalisib + Bortezomib; first compound 0.0003 µM
  relative viability: 0.605
Omipalisib + Bortezomib; first compound 0.003 µM
  relative viability: 0.549
Omipalisib + Bortezomib; first compound 0.03 µM
  relative viability: 0.263
Omipalisib + Navitoclax; first compound 0.0003 µM
  relative viability: 0.337
Omipalisib + Navitoclax; first compound 0.003 µM
  relative viability: 0.243
Omipalisib + Navitoclax; first compound 0.03 µM
  relative viability: 0.137
Omipalisib + Foretinib; first compound 0.0003 µM
  relative viability: 0.114
Omipalisib + Foretinib; first compound 0.003 µM
  relative viability: 0.102
Omipalisib + Foretinib; first compound 0.03 µM
  relative viability: 0.0896
Omipalisib + Lapatinib; first compound 0.0003 µM
  relative viability: 0.211
Omipalisib + Lapatinib; first compound 0.003 µM
  relative viability: 0.216
Omipalisib + Lapatinib; first compound 0.03 µM
  relative viability: 0.202
Omipalisib + Pictilisib; first compound 0.0003 µM
  relative viability: 0.428
Omipalisib + Pictilisib; first compound 0.003 µM
  relative viability: 0.395
Omipalisib + Pictilisib; first compound 0.03 µM
  relative viability: 0.191
Omipalisib + Crizotinib; first compound 0.0003 µM
  relative viability: 0.218
Omipalisib + Crizotinib; first compound 0.003 µM
  relative viability: 0.183
Omipalisib + Crizotinib; first compound 0.03 µM
  relative viability: 0.212
Omipalisib + Linsitinib; first compound 0.0003 µM
  relative viability: 0.822
Omipalisib + Linsitinib; first compound 0.003 µM
  relative viability: 0.521
Omipalisib + Linsitinib; first compound 0.03 µM
  relative viability: 0.405
Omipalisib + Alpelisib; first compound 0.0003 µM
  relative viability: 0.906
Omipalisib + Alpelisib; first compound 0.003 µM
  relative viability: 0.692
Omipalisib + Alpelisib; first compound 0.03 µM
  relative viability: 0.259
Omipalisib + Olaparib; first compound 0.0003 µM
  relative viability: 0.67
Omipalisib + Olaparib; first compound 0.003 µM
  relative viability: 0.57
Omipalisib + Olaparib; first compound 0.03 µM
  relative viability: 0.193
